In patent publication US20030176381A1, “Hyaluronic acid in the treatment of cancer” (priority 2002, published 2003):

Key:
[1] = system: MCF-7 human breast cancer cells; assay: MTT cell proliferation, MCF-7; type: cell-based; details: MCF-7 (2.5 X 10^5 cells/ml); oligonucleotide 100 μg/ml alone (HA 0.0 μg/ml)
[2] = target: CD44 cell surface HA receptor (human) (UniProt P16070); assay: flow cytometry, FITC-CD44 on UMUC-3 human bladder cancer cells (unstained cells: 3)
[3] = target: CD44 cell surface HA receptor (human) (UniProt P16070); assay: flow cytometry, FITC-CD44 on PC-3 human prostate cancer cells (unstained cells: 6)
[4] = target: CD44 cell surface HA receptor (human) (UniProt P16070); assay: flow cytometry, FITC-CD44 on T-24 human bladder cancer cells (unstained cells: 3)
[5] = target: CD44 cell surface HA receptor (human) (UniProt P16070); assay: flow cytometry, FITC-CD44 on HT-1376 human bladder cancer cells (unstained cells: 4)
[6] = target: CD44 cell surface HA receptor (human) (UniProt P16070); assay: flow cytometry, FITC-CD44 on RT-4 human bladder cancer cells (unstained cells: 4)
[7] = target: CD44 cell surface HA receptor (human) (UniProt P16070); assay: flow cytometry, FITC-CD44 on Du-145 human prostate cancer cells (unstained cells: 3)
[8] = target: CD44 cell surface HA receptor (human) (UniProt P16070); assay: flow cytometry, FITC-CD44 on MCF-7 human breast cancer cells (unstained cells: 3)
PC3 tumors [9] = assay: Example 14: HA, CIS, 5-FU on PC3 tumors in mice; type: in vivo, male nude BALB/c mice; details: vs Group 1 (saline); intravenously day 0 and at 3 day intervals for 4 weeks; HA 0.16-16.0 mg/kg, CIS or 5-FU 0.1-10.0 mg/kg
Method: PC-3 cancer cells are implanted subcutaneously into 224 male nude BALB/c mice. The mice are divided into 28 groups of 8 mice (Table 14).
(§1) Saline, HA, CIS, 5-FU, HA+CIS and HA+5FU are administered intravenously in saline on day 0 and at 3 day intervals for 4 weeks (10 injections) at which time the mice are sacrificed and tumor mass and number of metastases are determined.

[10] = system: RT-4 human bladder cancer cells; assay: MTT cell proliferation, RT-4; type: cell-based
Method: Cell proliferation was measured using dimethylthiazoldiphenyltetrazolium (MTT) reduction (Mosman et al. J. Immunol. Methods 65:55, 1983). Unless otherwise stated, 100 Al of 5 mg of MTT (Sigma-Aldrich, St. Louis, Mo., USA) dissolved in 1 ml of PBS was added into each well. After 4 h, medium was removed from each well, 1.0 ml of acid-isopropanol (0.04 N HCI in isopropanol) was added and reduced MTT was solubilized by mixing. Absorbency of the reaction product was measured at a wavelength of 570 nm using a multiplate spectrophotometer reader (Elx800 Model, Bio-TEK Instruments Inc., Winooski, Vt., USA). […] PC-3, LNCAP and Du-145 human prostate cancer cells; MCF-7 human breast cancer cells; HT-1080 human fibrosarcoma cancer cells; B16F1 murine melanoma cells; and, UMUC-3, RT-4, HT-1376 and T-24 human bladder cancer cells were incubated with 0.8, 8.0 and 80 μg/ml of 5.0-7.5 x 10^5 Da HA (Table 2). […] MTT was used at 50 μl per well. HT-1376, RT-4 and T-24 human bladder cancer cells were incubated with 0.8 pg/ml of 5.0-7.5 x 10^5 Da HA +1.0 ug/ml of MCC (Table 5). […] MCF-7 human breast cancer cells; RT-4, T-24, HT-1376 and UMUC-3 human bladder cancer cells; and, PC-3, Du-145 and LNCaP prostate cancer cells (Table 8)

B16F1 tumors [11] = assay: Example 16: HA, CIS, 5-FU on B16F1 tumors in mice; type: in vivo, female C57BL/6 mice; details: vs Group 1 (saline); intravenously day 0 and at 3 day intervals for 4 weeks; HA 0.16-16.0 mg/kg, CIS 0.01-1.0 mg/kg or 5-FU 1.0-100.0 mg/kg
Method: Effect of saline, HA, CIS, 5-FU, HA+CIS and HA+5-FU on B16F1 tumors in mice 5 B16F1 cancer cells are implanted subcutaneously into 224 female C57BL/6 mice. The mice are divided into 28 groups of 8 mice (Table 16).
as §1

LNCaP tumors (CD44 null) [12] = assay: Example 15: HA, CIS, 5-FU on LNCaP tumors in mice; type: in vivo, male nude BALB/c mice; details: vs Group 1 (saline); intravenously day 0 and at 3 day intervals for 4 weeks; HA 0.16-16.0 mg/kg, CIS or 5-FU 0.1-10.0 mg/kg
Method: Effect of saline, HA, CIS, 5-FU, HA+CIS andHA+5-FU on LNCaP tumors in mice LNCaP cancer cells (CD44 null) are implanted subcutaneously into 224 male nude BALB/c mice. The mice are divided into 28 groups of 8 mice (Tablel5).
Saline, HA, CIS, 5-FU, HA+CIS and HA+5FU are administered intravenously in saline on day 0 and at 3 day intervals-for 4 weeks-(1IOinjections) at which time the mice are sacrificed and tumor mass and number of metastasis are determined.

[13] = system: MCF-7 human breast cancer cells; assay: MTT cell proliferation, MCF-7; type: cell-based; details: Homo sapiens, MCF7, 5-FU at 10 μg/ml alone (saline instead of HA)
Method: (§2) Cell proliferation was measured using dimethylthiazoldiphenyltetrazolium (MTT) reduction (Mosman et al. J. Immunol. Methods 65:55, 1983). Unless otherwise stated, 100 Al of 5 mg of MTT (Sigma-Aldrich, St. Louis, Mo., USA) dissolved in 1 ml of PBS was added into each well. After 4 h, medium was removed from each well, 1.0 ml of acid-isopropanol (0.04 N HCI in isopropanol) was added and reduced MTT was solubilized by mixing. Absorbency of the reaction product was measured at a wavelength of 570 nm using a multiplate spectrophotometer reader (Elx800 Model, Bio-TEK Instruments Inc., Winooski, Vt., USA).
(§3) Unless stated otherwise 1.0 x 10^5 cells/ml were seeded in 6-well flat-bottom tissue culture plates and were maintained for 48 h at 370 C in a 5% CO2 atmosphere.
(§4) PC-3, LNCAP and Du-145 human prostate cancer cells; MCF-7 human breast cancer cells; HT-1080 human fibrosarcoma cancer cells; B16F1 murine melanoma cells; and, UMUC-3, RT-4, HT-1376 and T-24 human bladder cancer cells were incubated with 0.8, 8.0 and 80 μg/ml of 5.0-7.5 x 10^5 Da HA (Table 2).
(§5) Unless stated otherwise 2.0 x 10^4 cells/ml were seeded in 24-well plates and were maintained for 48 h at 370 C in a 5% CO2 atmosphere. MTT was used at 50 μl per well.
(§6) T-24 human bladder cancer cells, PC-3 and Du-145 human prostate cancer cells, and MCF-7 human breast cancer cell were incubated with saline or with 80.0 jg/ml of 5.0-7.5 x 105 Da HA +1.0 μg/ml of M-DNA (Table 4).
MTT was used at 50 µl per well.
Example 8 s HA potentiation of the anti-neoplastic effect ofchemotherapeutic drugs RT-4 human bladder cancer cells and MCF-7 human breast cancer cells were incubated as in Example 6 with 0.0, 0.008 or 0.08 pg/ml of 5.0-7.5 x 10^5 Da HA +0.1 jg/ml of CIS, +1.0 jg/ml of 5-FU or +10 jig/ml of 5-FU (Table 7).
(§7) CD44 expression and the inhibition of proliferation by 5.0-7.5 x 10^5 Da HA were measured using Jurkat T cell leukemia cells; MCF-7 human breast cancer cells; RT-4, T-24, HT-1376 and UMUC-3 human bladder cancer cells; and, PC-3, Du-145 and LNCaP prostate cancer cells (Table 8)

[14] = system: B16F10 murine melanoma tumor; details: HA 1 mg/ml over 7 days by Alzet osmotic pump into the immediate vicinity of the tumor; cited from earlier work
LNCaP tumors (CD44 null) [15] = assay: Example 12: HA, M-DNA, MCC on LNCaP tumors in mice; type: in vivo, male nude BALB/c mice; details: vs Group 1 (saline); intravenously day 0 and at 3-day intervals for 4 weeks; HA 0.16-16.0 mg/kg, M-DNA or MCC 0.02-2.0 mg/kg
Method: Effect of saline, HA, M-DNA, MCC, HA+M-DNA and HA +MCC on LNCaP tumors in mice LNCaP human prostate cancer cells (CD44 null) are implanted subcutaneously into 224 male nude BALB/c mice. The mice are divided into 28 groups of 8 mice (Table 12).
(§8) Saline, HA, M-DNA, MCC, HA+M-DNA and HA+MCC are administered intravenously on day 0 and at 3-day intervals for 4 weeks (10 injections) at which time the mice are sacrificed and tumor mass and number of metastases are determined.

PC3 tumors [16] = assay: Example 11: HA, M-DNA, MCC on PC3 tumors in mice; type: in vivo, male nude BALB/c mice; details: vs Group 1 (saline); intravenously day 0 and at 3-day intervals for 4 weeks; HA 0.16-16.0 mg/kg, M-DNA or MCC 0.02-2.0 mg/kg
Method: PC-3 human prostate cancer cells are implanted subcutaneously into 224 male nude BALB/c mice. The mice are divided into 28 groups of 8 mice (Table 11).
as §8

[17] = system: LNCaP human prostate cancer cells; assay: MTT cell proliferation, LNCaP; type: cell-based; details: 48 h
Method: as §2, §3, §4
(§9) PC-3. LNCaP and Du-145 human prostate cancer cells were incubated with 8.0 jg/ml of 5.0-7.5 x 105 Da HA or of <1.5 x 10^4 Da HA (Table 3).
as §7

[18] = system: rectal, gastric, breast, prostate and endometrial cancers; details: HA >750 mg/kg administered with various other therapeutic agents over various periods of time; cited from earlier work
colon-26 cancer cells = details: HA alone; colon-26 cells express high levels of HA receptors; cited from earlier work
B16F1 tumors [19] = assay: Example 13: HA, M-DNA, MCC on B16F1 tumors in mice; type: in vivo, female C57BL/6 mice; details: vs Group 1 (saline); intratumorally day 0 and at 3 day intervals for 4 weeks; HA 0.16-16.0 mg/kg, M-DNA or MCC 0.02-2.0 mg/kg
Method: Example 13 Effect of saline, HA, M-DNA, MCC, HA+M-DNA and HA +MCC on B16F1 tumors in mice B16F I cancer cells are implanted […] into 224 female C57BL/6 mice. The mice are divided into 28 groups of 8 mice (Table 13).
Saline, HA, M-DNA, MCC, HA+M-DNA and HA+MCC are administered intratumorally in saline on day 0 and at 3 day intervals for 4 weeks (10 injections) at which time the mice are sacrificed and tumor mass and number of metastases are determined.

[20] = system: PC-3 human prostate cancer cells; assay: MTT cell proliferation, PC-3; type: cell-based; details: 48 h
Method: as §2, §3, §4, §9, §5, §6, §7

[21] = system: Du-145 human prostate cancer cells; assay: MTT cell proliferation, Du-145; type: cell-based; details: HA 8.0 μg/ml, 48 h
Method: as §2, §3, §4, §9, §5, §6, §7

Sequence of UniProt P16070 (P16070 21-742): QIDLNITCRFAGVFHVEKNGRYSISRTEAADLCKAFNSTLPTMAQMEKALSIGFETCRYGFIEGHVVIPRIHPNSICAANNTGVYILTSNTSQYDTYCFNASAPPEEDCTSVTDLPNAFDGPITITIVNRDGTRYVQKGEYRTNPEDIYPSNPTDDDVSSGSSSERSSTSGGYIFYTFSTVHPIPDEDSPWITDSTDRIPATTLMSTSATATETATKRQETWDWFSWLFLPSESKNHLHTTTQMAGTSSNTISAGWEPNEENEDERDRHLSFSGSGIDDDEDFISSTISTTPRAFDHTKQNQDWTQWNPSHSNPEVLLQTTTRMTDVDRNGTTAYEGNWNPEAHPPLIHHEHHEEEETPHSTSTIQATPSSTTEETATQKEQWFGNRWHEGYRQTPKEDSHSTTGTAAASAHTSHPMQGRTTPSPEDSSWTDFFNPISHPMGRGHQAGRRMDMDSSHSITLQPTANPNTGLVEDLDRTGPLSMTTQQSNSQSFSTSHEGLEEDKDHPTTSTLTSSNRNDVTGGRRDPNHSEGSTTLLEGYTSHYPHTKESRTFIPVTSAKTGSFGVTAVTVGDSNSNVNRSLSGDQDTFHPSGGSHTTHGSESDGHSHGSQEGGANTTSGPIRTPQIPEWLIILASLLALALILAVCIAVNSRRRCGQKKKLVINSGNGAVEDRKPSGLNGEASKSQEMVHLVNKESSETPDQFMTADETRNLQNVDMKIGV

(G1T)13G: synthetic 27 base oligonucleotide (GTGTGTGTGTGTGTGTGTGTGTGTGTG; listed as DNA, chemistry not given here)
% INHIBITION of cell proliferation [1]: 44%

GG(GT)1GG: synthetic 6 base oligonucleotide
% INHIBITION of cell proliferation [1]: 20%

fluorescent anti-HA receptor monoclonal antibody FITC-CD44 (clone G44-26 (C26), Pharmingen)
mean fluorescent units (mean fluorescent units) [2]: 1800
mean fluorescent units (mean fluorescent units) [3]: 400
mean fluorescent units (mean fluorescent units) [4]: 1800
mean fluorescent units (mean fluorescent units) [5]: 200
mean fluorescent units (mean fluorescent units) [6]: 60
mean fluorescent units (mean fluorescent units) [7]: 450
mean fluorescent units (mean fluorescent units) [8]: 70

N.N.[Cl][Pt][Cl] [CIS, cisplatin]
number of metastases (PC3 tumors [9]): fewer metastases
tumor mass (PC3 tumors [9]): less tumor mass
% INHIBITION of cell proliferation ([10]; CIS at 0.1 μg/ml alone (saline instead of HA)): 2%
number of metastases (B16F1 tumors [11]): fewer metastases
tumor mass (B16F1 tumors [11]): less tumor mass
number of metastasis (LNCaP tumors (CD44 null) [12]): fewer metastases
tumor mass (LNCaP tumors (CD44 null) [12]): less tumor mass

O=c1[nH]cc(F)c(=O)[nH]1 [5-FU, 5-fluorouracil]
number of metastases (PC3 tumors [9]): fewer metastases
tumor mass (PC3 tumors [9]): less tumor mass
inhibition at 1 µg/mL ([10]; Homo sapiens, 5-FU at 1.0 μg/ml alone (saline instead of HA)): 14%
number of metastases (B16F1 tumors [11]): fewer metastases
tumor mass (B16F1 tumors [11]): less tumor mass
number of metastasis (LNCaP tumors (CD44 null) [12]): fewer metastases
tumor mass (LNCaP tumors (CD44 null) [12]): less tumor mass
inhibition at 10 µg/mL [13]: 18%

Hyaluronic acid [HA]
number of metastases (PC3 tumors [9]): fewer metastases
tumor mass (PC3 tumors [9]): less tumor mass
reduced tumor volume [14]: > 85%
number of metastases (LNCaP tumors (CD44 null) [15]): fewer metastases
tumor mass (LNCaP tumors (CD44 null) [15]): less tumor mass
number of metastases (B16F1 tumors [11]): fewer metastases
tumor mass (B16F1 tumors [11]): less tumor mass
number of metastases (PC3 tumors [16]): fewer metastases
tumor mass (PC3 tumors [16]): less tumor mass
% INHIBITION of cell proliferation ([17]; HA 80.0 μg/ml): 26%
effect on cancers [18]: reduced or eliminated
growth of cancer cells (colon-26 cancer cells): significantly inhibits the growth
number of metastasis (LNCaP tumors (CD44 null) [12]): fewer metastases
tumor mass (LNCaP tumors (CD44 null) [12]): less tumor mass
number of metastases (B16F1 tumors [19]): fewer metastases
tumor mass (B16F1 tumors [19]): less tumor mass
% INHIBITION of cell proliferation ([20]; HA 80.0 μg/ml): 30%

Hyaluronic acid [<1.5 × 10^4 Da HA]
% INHIBITION of cell proliferation [21]: 37%
% INHIBITION of cell proliferation ([17]; HA 8.0 μg/ml): 24%
% INHIBITION of cell proliferation ([20]; HA 8.0 μg/ml): 5%
